Holding throughout (test): in vitro antibacterial MIC, agar plate dilution
Format in all cases: cell-based

The subject of experiment [1] is Enterobacter cloacae MOR 83-30. Conditions: MOR8330, 18 hours, 35° C. In short, it runs like this: (§1)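 MIC, mcg/ml: lowest concentration with no visible growth after 18 h incubation at 35° C. Mueller-Hinton agar dilution plates; ~10^4 CFU inoculum via Steers replicating device.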
The subject of experiment [2] is Escherichia coli MOR 84-20. Conditions: Escherichia coli, MOR8420, 18 h, 35° C., read-out: MIC. In short, it runs like this: as §1
For experiment [3], the system named is Morganella morganii MOR 84-45. Particulars: Morganella morganii, MOR8445, 18 h, 35° C., read-out: MIC. The gist of the method: as §1
In experiment [4] the test system is Morganella morganii VHG 84-12. Conditions: Morganella morganii, VHG8412, 18 h, Morganella morganii VHG 84-12 (VGH 84-12 for Example 131), 35° C., read-out: MIC. The gist of the method: as §1
Experiment [5] relates to Pseudomonas aeruginosa CMC 83-20. Conditions: Pseudomonas aeruginosa, CMC8320, 18 h, 35° C., read-out: MIC. The gist of the method: as §1
The subject of experiment [6] is Pseudomonas aeruginosa K 84-16. Conditions: Pseudomonas aeruginosa, K8416, 18 h, 35° C., read-out: MIC. The gist of the method: as §1
For experiment [7], the system named is Pseudomonas aeruginosa VGH 84-4. Particulars: Pseudomonas aeruginosa, VGH844, 18 h, 35° C., read-out: MIC. In short, it runs like this: as §1
The test system of experiment [8] is Serratia marcescens K 84-18. Conditions: Serratia marcescens, K8418, 18 h, 35° C., read-out: MIC. The gist of the method: as §1
In experiment [9] the test system is Streptococcus faecalis UCI 85-19. Particulars: Enterococcus faecalis, UCI8519, 18 h, 35° C., read-out: MIC. The gist of the method:
as §1

Molecules are shown by their SMILES. In brackets after ≈: the same amount, converted by molar mass.

In general, MIC refers to the lowest concentration that inhibits growth of the organism.

On to `O=C(O)c1cn(C2CC2)c2cc(N3CCNC(CF)C3)c(F)cc2c1=O` (stereo not drawn) [Example 131, 1-Cyclopropyl-6-fluoro-7-[3-(fluoromethyl)-1-piperazinyl]-1,4-dihydro-4-oxo-3-quinolinecarboxylic acid], for which the MIC in experiment [1] stood at 0.12 µg/mL (≈ 0.33 µM); in experiment [2] it was 0.03 µg/mL (≈ 0.0826 µM); in experiment [3], 0.12 µg/mL (≈ 0.33 µM); in [4], 0.12 µg/mL (≈ 0.33 µM); in [5], 1 µg/mL (≈ 2.75 µM); in experiment [6] it was 1 µg/mL (≈ 2.75 µM). Further, the MIC turned out to be 1 µg/mL (≈ 2.75 µM) in [7], 0.12 µg/mL (≈ 0.33 µM) in [8] and 2 µg/mL (≈ 5.5 µM) in experiment [9].

Values taken from US5210193A, “Piperazine derivatives” (American Cyanamid Company, priority 1990, dated 1993).
